Assay results published in patent US6177592A, “Compounds” (priority 1997, dated 2001).

Columns and labels:
[1] = system: Sarcoma-180; experiment: Sarcoma-180/ICR mice macrobiotic effect; type: in vivo
[2] = system: HL-60 cells (promyelocytic leukemia cell); experiment: Viable cell numbers of HL-60 (growth inhibition of cancer cells); type: cell-based, human
Protocol: (1) Each 0.5 ml of 0.2 mM CM, 0.8 mM CM or 1.6 mM CM was added to 4.5 ml of RPMI 1640 medium containing 10% of fetal calf serum and 2.5×10^5HL-60 cells (promyelocytic leukemia cell) (ATCC CCL-240) and incubated at 37° C. for 24 hours or 48 hours in the presence of 5% carbon dioxide gas and the numbers of viable cells were measured.
In FIG. 28, open square (.quadrature.) indicates the case where CM is added followed by culturing for 24 hours; black square (.box-solid.) indicates the case where CM is added followed by culturing for 48 hours; open triangle (Δ) indicates the case where no sample was added followed by culturing for 24 hours; and black triangle (.tangle-solidup.) indicates the case where no sample was added followed by culturing for 48 hours.
(4) HL-60 cells (ATCC CCL240) which were incubated at 37° C. in an RPMI 1640 medium (manufactured by Nissui) containing 10% of fetal calf serum (manufactured by Gibco) treated at 56° C. for 30 minutes were suspended in the above medium to make the concentration 2.5×10^5cells/4.5 ml. To this suspension was added 0.5 ml of 100 μM aqueous solution of GM (final concentration: 10 μM) followed by incubating at 37° C. in the presence of 5% carbon dioxide gas for 24 hours, 48 hours and 72 hours. […]

[3] = system: NIH 3T3/E7-2; experiment: Colony formation of HPV16 E7-transformed NIH 3T3/E7-2 cells; type: cell-based
Protocol: (1) Transformation to Escherichia coli HB101 was conducted by control plasmid pcD2-Y expressing G418-resisting gene [Mol. Cell. Biol., volume 7, pages 2745-2752 (1987)] and plasmid pcD2-16E7 which was capable of expressing both HPV 16 type E7 and G418-resisting gene [Jpn. J. Cancer Res., volume 82, pages 1340-1343 (1991)], then incubation was conducted in an L-broth medium and plasmid was extracted from the collected cells and purified by a cesium chloride density gradient ultracentrifugation to give vector plasmid for introduction of gene.
The purified plasmid (10 μg) was introduced into NIH 3T3 cells using a cationic liposome (TransIT LT-1, manufactured by Takara Shuzo), the cells were selected at 37° C. under the condition of 5% CO2 for two weeks in a Dulbecco-modified Eagle's medium containing 10% calf serum which contained 0.4 mg/ml of G418 (Gibco) and the resulting colonies were cloned to establish each nine strains of NIH 3T3 cells into which control vector was introdcd and NIH 3T3 cells which was cancerated with HPV 16 type E7.
The cells strains into which E7 was introduced were named NIH 3T3/E7-1, NIH 3T3/E7-2, NIH 3T3/E7-3, NIH 3T3/E7-4, NIH 3T3/E7-5, NIH 3T3/E7-6, NIH 3T3/E7-7, NIH 3T3/E7-8 and NIH 3T3/E7-9. […]
A part of the suspension was taken out and cell density was counted by a Neubauer's hemocytometer. […]

[4] = system: Fas antigen; experiment: Fas antigen expression in Jurkat cells; type: cell-based, human; details: 1-10 μM, 24 hours
Protocol: (2) Influence of GM on Fas antigen expression (productive induction) in Jurkat cells and Molt-3 cells was measured as follows. In a 10% FCS-containing RPMI 1640 medium containing 0, 1, 5, 10 or 20 μM of cyclopentenone or GM, 5×10^5 cell/ml of Jurkat cells or Molt-3 cells were incubated at 37° C. for 24 hours in the presence of 5% of CO2 and then subjected to a two-step immunostaining using an anti-Fas antibody (manufactured by Boehringer-Ingelheim) in accordance with a method of Munker [Munker, R.: Ann. Hematol., volume 70, pages 15-17 (1995)].
Fluorescence intensity of the stained 1×10^4 cells was measured by a flow cytometer (Orthocytron; manufactured by Ortho Diagnostic Systems) and ratio of the cell showing a predetermined or higher fluorescence intensity which were Fas antigen-expressing cells was calculated.

SMILES | macrobiotic effect [1] | viable cell numbers and viability of cells ([2]; 10 μM GM, 24, 48 and 72 hours, vs water control) | sensitivity of E7-introduced cells compared with control cells (in words) ([3]; 5 μM) | Numbers of Colonies (Mean Value ± SD) ([3]; 5 μM GM, nine days, control 67.3 ± 3.2) | ratio of Fas antigen-expressing cells [4] | inhibition activity of the growth of cancer cells ([2]; 0.5 ml of 0.2, 0.8 or 1.6 mM CM added to 4.5 ml, 24 or 48 hours)
N[C@@H](CCC(=O)N[C@@H](CSC1C=C(O)C(=O)C1)C(=O)NCC(=O)O)C(=O)O (stereo partly shown) [GM, 2-hydroxy-4-glutathion-S-yl-2-cyclopenten-1-one] | same macrobiotic effect | significantly reduced | high sensitivity to GM as compared with the control cells | 13.3 ± 3.2 | the ratio of Fas antigen-expressing cells increased on a concentration-dependent manner | –
N[C@@H](CSC1C=C(O)C(=O)C1)C(=O)O (stereo partly shown) [CM] | same macrobiotic effect | – | – | – | – | intensive inhibition activity of the growth of cancer cells
